From article PMC5447021, “TNF Lectin-Like Domain Restores Epithelial Sodium Channel Function in Frameshift Mutants Associated with Pseudohypoaldosteronism Type 1B” (Frontiers in Immunology, 2017)
Entries after “also recorded” stand apart in the source; their conditions may differ.

Columns and labels:
[1] = system: A549 and H441 cells or HEK-293 cells heterologously expressing human ENaC; design: method as in PMID 24077967, PMID 25029038; conditions: cited from earlier work
[2] = system: α-ENaC (WT αβγ-ENaC); assay: Membrane abundance of WT α-ENaC (cell surface biotinylation, Western blot); type: cell-based, human; conditions: HEK-293, 200 nM solnatide, relative to WT control (=1), p < 0.001 vs control
Description: (§1) Cell surface biotinylation was performed as previously described ([26]). In brief, A549 cells or transiently transfected HEK-293 cells were grown in 10 cm dishes in 37°C, 5% CO2 incubator in DMEM medium supplemented with 5% FBS. […] Medium was aspirated, and then cells were washed twice with 10 ml ice-cold phosphate-buffered saline (PBS), covered with 2.5 mg EZ-Link Sulfo-NHS-SS-Biotin (Thermo Scientific, Rockford, USA), dissolved in 10 ml ice-cold PBS, and incubated at 4°C with gentle agitation for 30 min. Fifty milliliters of quenching solution were added to cells; then cells were scraped in solution and transferred to fresh 50 ml tube. Cell suspension was centrifuged at 500 × g for 3 min. Supernatant was discarded, and 5 ml of Tris-buffered saline (TBS) was added to the cell pellet. The cell pellet was resuspended and centrifuged at 500 × g for 3 min. Supernatant was discarded and cell pellet was resuspended in lysis buffer containing protease inhibitor cocktail (10 µM pepstatin A, 10 µM phenylmethylsulfonyl fluoride, and 10 µM leupeptin) and transferred to fresh 1.5 ml centrifuge tube. Cell pellet was then homogenized on ice by ultrasonication using 1 s bursts and incubated on ice for at least 30 min. Intact cells and nuclei were pelleted by centrifugation at 10,000 × g for 2 min under cooling conditions. […] Exposed films were scanned and quantified using ImageJ (NIH, MD, USA).

[3] = system: αP197fs; assay: Membrane abundance of αP197fs; type: cell-based, human; conditions: 200 nM, relative to WT control (=1), own control 1.18 ± 0.05, p < 0.01 vs control
Description: as §1, with “USA). […]” for “USA).”

[4] = system: αL576XβD546XγD556X; assay: Amiloride-sensitive current, αL576XβD546XγD556X; type: cell-based, human; conditions: lacking all carboxyl termini, preliminary experiments
[5] = system: βE539A,E542A γE548A,E551A-ENaC (βM2γM2); assay: Whole-cell patch clamp, βM2γM2-ENaC; type: cell-based, human; conditions: HEK-293, 200 nM solnatide
Description: Point mutations of α-, β-, γ- and δ-hENaC and PHA1B frameshift mutations of α-hENaC were prepared with the QuikChange Lightning Site-Directed Mutagenesis Kit (Agilent Technologies, CA, USA). Mutagenic primers were designed individually with the Primer Design Program provided on the producer’s website or for the frameshift mutations the same base changes as reported in patients (see Table 2) were performed. Primers were ordered from Sigma-Aldrich, Vienna, Austria.
HEK-293 cells were transfected 1 day after cell seeding using X-tremeGENE HP DNA transfection reagent (Roche Diagnostics, Mannheim, Germany) according to the manufacturer’s protocol. A set of WT or mutant αβγ- or δβγ-hENaC, or α-, β-, γ-, or δ-hENaC alone was used, and the ratio of DNA to transfection reagent was 1:3. The expression was highest 48–72 h after transfection.
Electrophysiological experiments were performed as described in detail by Shabbir et al. ([16]). […] Currents were recorded with the patch clamp method in the whole-cell mode. The chamber contained 1 ml of the bath solution of the following composition (in mM): 145 NaCl, 2.7 KCl, 1.8 CaCl2, 2 MgCl2, 5.5 glucose, and 10 HEPES, adjusted to pH 7.4 with 1 M NaOH solution. Micropipettes were pulled from thin-walled borosilicate glass capillaries (Harvard Apparatus, Holliston, MA, USA) with a DMZ Zeitz Puller to obtain electrode resistances ranging from 2 to 5 MΩ. […]

[6] = system: pathological conditions involving ENaC; conditions: cited from earlier work

C[C@@H]1NC(=O)CNC(=O)[C@H](CCC(=O)O)NC(=O)[C@@H]2CCCN2C(=O)[C@H]([C@@H](C)O)NC(=O)[C@H](CCC(=O)O)NC(=O)[C@H](CCCNC(=N)N)NC(=O)[C@H](CCC(N)=O)NC(=O)CNC(=O)[C@@H](N)CSSC[C@@H](C(=O)O)NC(=O)[C@H](Cc2ccc(O)cc2)NC(=O)[C@H](Cc2c[nH]c3ccccc23)NC(=O)[C@@H]2CCCN2C(=O)[C@H](CCCCN)NC(=O)[C@H](C)NC(=O)[C@H](CCC(=O)O)NC1=O [solnatide, L-cysteine, L-cysteinylglycyl-L-glutaminyl-L-arginyl-L-α-glutamyl-L-threonyl-L-prolyl-L-α-glutamylglycyl-L-alanyl-L-α-glutamyl-L-alanyl-L-lysyl-L-prolyl-L-tryptophyl-L-tyrosyl-, cyclic (1→17)-disulfide]
Na^+ current-enhancing effect after PNGase F [1]: Elimination of the Na^+ current-enhancing effect | Membrane abundance, solnatide 5 min ([2]; 5 min, normalized to β-actin): 1.48 ± 0.12 | Membrane abundance, solnatide 10 min ([2]; 10 min): 1.40 ± 0.09 | Membrane abundance, solnatide 5 min [3]: 1.33 ± 0.07 | Effect of solnatide on current (words) [4]: an even slighter, non-significant increase of current | Effect of solnatide on current (words) ([5]; n = 3): A small increase in the amiloride-sensitive Na^+ current was still observed; also recorded: still able to activate βM2γM2-ENaC (not significant) to an equal extent as WT βγ-ENaC | Effect of solnatide on current (words) ([5]; n = 3, listed as Solnatide): still increased the amiloride-sensitive sodium current in these mutants | Efficacy in phase II clinical trials [6]: already proven in pathological conditions involving ENaC in phase II clinical trials
